Test results published in ChEMBL document CHEMBL1144517, “Structural requirement of chalcones for the inhibitory activity of interleukin-5” (Bioorg Med Chem, 2007).

What was measured:
[1] = Inhibition of IL5 in mouse Y16 cells; type: functional; design: concentration or dose not given beside the values
[2] = Inhibition of IL5 in mouse Y16 cells […]; type: functional, cell-based

SMILES	IC50 [2] [µM]	Inhibition [1] [%]
O=C(/C=C/c1ccc(O)cc1)c1ccccc1O	48.2	50
CCc1ccc(/C=C/C(=O)c2c(O)cccc2OCC2CCCCC2)cc1	27.9	82.3
O=C(O)c1cccc(/C=C/C(=O)c2c(O)cccc2OCC2CCCCC2)c1	14.1	98.1
O=C(O)c1ccccc1/C=C/C(=O)c1c(O)cccc1OCC1CCCCC1	> 50	-18.9
COCOc1ccc(/C=C/C(=O)c2c(O)cccc2OCc2ccccc2)cc1	> 50	47.8
O=C(/C=C/c1ccc(O)cc1)c1ccc(OCC2CCCCC2)cc1O	21.4	59.7
Nc1ccc(/C=C/C(=O)c2c(O)cccc2OCC2CCCCC2)cc1	> 50	16.4
O=C(O)c1ccc(/C=C/C(=O)c2ccccc2O)cc1	> 50	-18.7
O=C(/C=C/c1ccccc1)c1c(O)cccc1OCC1CCCCC1	14.3	99.6
O=C(/C=C/c1ccc(O)cc1)c1c(O)cccc1OCC1CCCCC1	12.6	99
O=C(O)c1ccc(CCC(=O)c2c(O)cccc2OCC2CCCCC2)cc1	> 50	15.6
O=C(/C=C/c1ccc(O)cc1)c1c(O)cccc1OCc1ccccc1	25.3	78.8
O=C(O)c1ccc(/C=C/C(=O)c2ccc(OCC3CCCCC3)cc2O)cc1	10.8	100
O=C(/C=C/c1ccc(O)cc1)c1ccc(OCc2ccccc2)cc1O	28.8	77.6
O=C(O)c1ccc(/C=C/C(=O)c2ccc(OCc3ccccc3)cc2O)cc1	14.2	100
O=C(O)c1ccc(/C=C/C(=O)c2c(O)cccc2OCc2ccccc2)cc1	10.2	100
O=C(O)c1ccc(/C=C/C(=O)c2ccccc2OCc2ccccc2)cc1	> 50	15
COCOc1ccc(/C=C/C(=O)c2c(O)cccc2OCC2CCCCC2)cc1	> 50	13

Now those with a lower IC50 [2], led by results:

IC50 [2] [µM]	SMILES	Inhibition [1] [%]
6.4	O=C(/C=C/c1ccc(CO)cc1)c1c(O)cccc1OCC1CCCCC1	99.3
4.5	O=Cc1ccc(/C=C/C(=O)c2c(O)cccc2OCC2CCCCC2)cc1	99.8
9.4	O=C(O)c1ccc(/C=C/C(=O)c2c(O)cccc2OCC2CCCCC2)cc1	100
3.9	COC(=O)c1ccc(/C=C/C(=O)c2c(O)cccc2OCC2CCCCC2)cc1	98.6
7	NS(=O)(=O)c1ccc(/C=C/C(=O)c2c(O)cccc2OCc2ccccc2)cc1	99.5
1.8	NS(=O)(=O)c1ccc(/C=C/C(=O)c2c(O)cccc2OCC2CCCCC2)cc1	99.5
6.4	CC(=O)Nc1ccc(/C=C/C(=O)c2c(O)cccc2OCC2CCCCC2)cc1	99.2
7.1	O=C(/C=C/c1ccc(Cl)cc1)c1c(O)cccc1OCC1CCCCC1	98.8
